# Measured values published in patent US10273235B2, “Compositions and methods for inhibiting β-lactamase” (LegoChem Biosciences, Inc., priority 2015, dated 2019).
# Several values for one entry are separate records, joined by “and”; a condition that tells them apart may be missing. Identical values can stand only once. Like-named read-outs stand apart in the source and are kept apart here.
# Experiments:
# Type in all cases: cell-based
# P. aeruginosa ATCC27853 = assay: BLI potentiation MIC (broth microdilution), P. aeruginosa ATCC27853 (PoxB, AmpC); details: no BLI, incubation 19 h; for MIC: Pseudomonas aeruginosa, ATCC27853, 19 h
# Experimental: (§1) MIC90 (μg/mL) is the lowest concentration of an antibiotic that will inhibit the visible growth of 90% of microorganisms after incubation as compared with a control group to which the antibiotic is not treated.
# (§2) MIC values were measured by the broth microdilution method developed by the Clinical and Laboratory Standards Institute (CLSI) (see CLSI M07-A9, Methods for Dilution Antimicrobial Susceptibility Test for Bacteria that Grow Aerobically; Approved Standard-Ninth Edition (2012): CLSI, Villanova, Pa.). The in vitro antibacterial activity was measured with respect to the following 9 clinical isolates: P. aeruginosa (3 strains); K. pneumoniae (6 strains). The in vitro antibacterial activity of selected compounds was measured with respect to the following 15 clinical isolates: K. pneumoniae (15 strains).
# P. aeruginosa ARC3506 = assay: BLI potentiation MIC, P. aeruginosa ARC3506 (VEB-1, OXA-10, OprD−, AmpC); details: Pseudomonas aeruginosa, ARC3506, no BLI, incubation 19 h
# Experimental: as §1, §2
# P. aeruginosa ARC3514 = assay: BLI potentiation MIC, P. aeruginosa ARC3514 (KPC-2, OprD−, AmpC); details: no BLI, incubation 19 h; for MIC: Pseudomonas aeruginosa, ARC3514, 19 h
# Experimental: as §1, §2
# K. pneumoniae NDM-506 = assay: BLI potentiation MIC, K. pneumoniae NDM-506; details: Klebsiella pneumoniae, NDM506, no BLI, incubation 19 h
# Experimental: as §1, §2
# K. pneumoniae 5576 = assay: BLI potentiation MIC, K. pneumoniae 5576 (SHV-11, CMY-2, DHA-1, TEM-1); details: no BLI, incubation 19 h; for MIC: Klebsiella pneumoniae, 5576, 19 h
# Experimental: as §1, §2
# K. pneumoniae 3784 = assay: BLI potentiation MIC, K. pneumoniae 3784 (SHV-11, SHV-12, DHA-1); details: no BLI, incubation 19 h; for MIC: Klebsiella pneumoniae, 3784, 19 h
# Experimental: as §1, §2
# K. pneumoniae 4248 = assay: BLI potentiation MIC, K. pneumoniae 4248 (SHV-11, CTX-M-15, TEM-1, OXA-1); details: no BLI, incubation 19 h; for MIC: Klebsiella pneumoniae, 4248, 19 h
# Experimental: as §1, §2
# K. pneumoniae 5216 = assay: BLI potentiation MIC, K. pneumoniae 5216 (TEM-1A); details: no BLI, incubation 19 h; for MIC: Klebsiella pneumoniae, 5216, 19 h
# Experimental: as §1, §2
# K. pneumoniae 7586 = assay: BLI potentiation MIC, K. pneumoniae 7586; details: no BLI, incubation 19 h
# Experimental: as §1, §2
# K. pneumoniae 6839 = assay: BLI potentiation MIC, K. pneumoniae 6839 (SHV-11, SHV-12, DHA-1); details: no BLI, incubation 19 h; for MIC: Klebsiella pneumoniae, 6839, 19 h
# Experimental: as §1, §2
# K. pneumoniae 89 = assay: BLI potentiation MIC, K. pneumoniae 89; details: no BLI, incubation 19 h
# Experimental: as §1, §2
# K. pneumoniae 100 = assay: BLI potentiation MIC, K. pneumoniae 100; details: Klebsiella pneumoniae, 100, no BLI, incubation 19 h
# Experimental: as §1, §2
# K. pneumoniae 101 = assay: BLI potentiation MIC, K. pneumoniae 101; details: no BLI, incubation 19 h; for MIC: Klebsiella pneumoniae, 101, 19 h
# Experimental: as §1, §2
# K. pneumoniae 5971(KOX) = assay: BLI potentiation MIC, K. pneumoniae 5971(KOX); details: no BLI, incubation 19 h; for MIC: Klebsiella pneumoniae, 19 h
# Experimental: as §1, §2
# K. pneumoniae KU2 = assay: BLI potentiation MIC, K. pneumoniae KU2; details: Klebsiella pneumoniae, no BLI, incubation 19 h
# Experimental: as §1, §2
# K. pneumoniae MP14 = assay: BLI potentiation MIC, K. pneumoniae MP14; details: no BLI, incubation 19 h; for MIC: Klebsiella pneumoniae, MP14, 19 h
# Experimental: as §1, §2
# K. pneumoniae 5117 = assay: BLI potentiation MIC, K. pneumoniae 5117 (SHV-11, TEM-1); details: no BLI, incubation 19 h; for MIC: Klebsiella pneumoniae, 5117, 19 h
# Experimental: as §1, §2
# K. pneumoniae CL5761 = assay: MIC of strain used for extraction of enzymes, K. pneumoniae CL5761 (KPC-3, TEM-216, SHV-5); details: Klebsiella pneumoniae, CL5761, no BLI
# Experimental: as §1, §2
# E. coli ECO200 = assay: MIC of strain used for extraction of enzymes, E. coli ECO200 (NDM-1, TEM-1, CTX-M-15, EC (AmpC), OXA-2 type); details: Escherichia coli
# E. coli K0519020 = assay: MIC of strain used for extraction of enzymes, E. coli K0519020 (CTX-M-15, TEM-1, OXA-1, AmpC (NC_000913)); details: Escherichia coli, K0519020, no BLI
# E. coli TOPDXA048 = assay: MIC of strain used for extraction of enzymes, E. coli TOPDXA048 (OXA-48, TEM-116, AmpC (NC_000913)); details: Escherichia coli
# E. aerogenes K9911729 = assay: MIC of strain used for extraction of enzymes, E. aerogenes K9911729 (CMY-10, TEM-1, SHV-12, AmpC (DQ478697)); details: Klebsiella aerogenes, K9911729, no BLI
# K. pneumoniae ATCC700603 = assay: BLI potentiation MIC, K. pneumoniae ATCC700603 (SHV-3); details: no BLI, incubation 19 h
# Experimental: as §1, §2
# K. pneumoniae 4006 = assay: BLI potentiation MIC, K. pneumoniae 4006 (SHV-12, CTX-M-15, TEM-1, OXA-9); details: no BLI, incubation 19 h
# Experimental: as §1, §2
# K. pneumoniae 6540 = assay: BLI potentiation MIC, K. pneumoniae 6540; details: no BLI, incubation 19 h
# Experimental: as §1, §2
# [1] = read-out: MIC of LCB10-0200 alone
# [2] = read-out: MIC of Meropenem alone
smiles,measurement,setting,value
CC(C)(O/N=C(\C(=O)N[C@@H]1C(=O)N2C(C(=O)[O-])=C(C[n+]3cnc(N)c(NCCNC(=O)c4cc(=O)c(O)cn4O)c3)CS[C@H]12)c1nc(N)sc1Cl)C(=O)O [LCB10-0200],MIC,P. aeruginosa ATCC27853; [1],0.25 µg/mL
same,MIC of LCB10-0200 alone,P. aeruginosa ATCC27853,0.5 μg/mL
same,MIC,P. aeruginosa ARC3506; [1],2 µg/mL
same,MIC,P. aeruginosa ARC3514; [1],0.25 µg/mL
same,MIC of LCB10-0200 alone,P. aeruginosa ARC3514,0.5 μg/mL
same,MIC,K. pneumoniae NDM-506; [1],> 64 µg/mL
same,MIC,K. pneumoniae 5576; [1],> 64 µg/mL
same,MIC of LCB10-0200 alone,K. pneumoniae 5576,64 μg/mL and 32 μg/mL
same,MIC,K. pneumoniae 3784; [1],32 µg/mL
same,MIC of LCB10-0200 alone,K. pneumoniae 3784,64 μg/mL
same,MIC,K. pneumoniae 4248; [1],2 µg/mL
same,MIC of LCB10-0200 alone,K. pneumoniae 4248,4 μg/mL
same,MIC,K. pneumoniae 5216; [1],> 64 µg/mL
same,MIC of LCB10-0200 alone,K. pneumoniae 5216,64 μg/mL and 32 μg/mL
same,MIC,"K. pneumoniae 7586; Klebsiella pneumoniae, 7586, 19 h, read-out: MIC of LCB10-0200 alone",4 µg/mL
same,MIC of LCB10-0200 alone,K. pneumoniae 7586,2 μg/mL
same,MIC,K. pneumoniae 6839; [1],32 µg/mL
same,MIC of LCB10-0200 alone,K. pneumoniae 6839,16 μg/mL
same,MIC,"K. pneumoniae 89; Klebsiella pneumoniae, 89, 19 h, read-out: MIC of LCB10-0200 alone",0.125 µg/mL
same,MIC of LCB10-0200 alone,K. pneumoniae 89,0.0625 μg/mL
same,MIC,K. pneumoniae 100; [1],0.0625 µg/mL
same,MIC,K. pneumoniae 101; [1],16 µg/mL
same,MIC of LCB10-0200 alone,K. pneumoniae 101,32 μg/mL
same,MIC,K. pneumoniae 5971(KOX); [1],32 µg/mL
same,MIC of LCB10-0200 alone,K. pneumoniae 5971(KOX),64 μg/mL
same,MIC,K. pneumoniae KU2; [1],32 µg/mL
same,MIC,K. pneumoniae MP14; [1],0.125 µg/mL
same,MIC of LCB10-0200 alone,K. pneumoniae MP14,0.25 μg/mL
same,MIC,K. pneumoniae 5117; [1],0.125 µg/mL
same,MIC of LCB10-0200 alone,K. pneumoniae 5117,0.25 μg/mL
same,MIC,K. pneumoniae CL5761; [1],32 µg/mL
same,MIC,"E. coli ECO200; ECO200, read-out: MIC of LCB10-0200 alone",> 64 µg/mL
same,MIC,E. coli K0519020; [1],64 µg/mL
same,MIC,"E. coli TOPDXA048; TOPDXA048, read-out: MIC of LCB10-0200 alone",0.25 µg/mL
same,MIC,E. aerogenes K9911729; [1],2 µg/mL
C[C@@H](O)[C@H]1C(=O)N2C(C(=O)O)=C(S[C@@H]3CN[C@H](C(=O)N(C)C)C3)[C@H](C)[C@H]12 [Meropenem],MIC,P. aeruginosa ATCC27853; [2],2 µg/mL
same,MIC,P. aeruginosa ARC3506; [2],64 µg/mL
same,MIC,P. aeruginosa ARC3514; [2],> 64 µg/mL
same,MIC,"K. pneumoniae ATCC700603; Klebsiella pneumoniae, ATCC700603, 19 h, read-out: MIC of Meropenem alone",0.125 µg/mL
same,MIC of Meropenem alone,K. pneumoniae ATCC700603,0.25 µg/mL
same,MIC,K. pneumoniae NDM-506; [2],> 64 µg/mL
same,MIC,K. pneumoniae 5576; [2],1 µg/mL
same,MIC of Meropenem alone,K. pneumoniae 5576,2 µg/mL
same,MIC,K. pneumoniae 3784; [2],2 µg/mL
same,MIC,"K. pneumoniae 4006; Klebsiella pneumoniae, 4006, 19 h, read-out: MIC of Meropenem alone",0.5 µg/mL
same,MIC of Meropenem alone,K. pneumoniae 4006,1 µg/mL
same,MIC,K. pneumoniae 4248; [2],0.125 µg/mL
same,MIC,K. pneumoniae 5216; [2],64 µg/mL
same,MIC of Meropenem alone,K. pneumoniae 5216,32 µg/mL
same,MIC,"K. pneumoniae 6540; Klebsiella pneumoniae, 6540, 19 h, read-out: MIC of Meropenem alone",1 µg/mL
same,MIC of Meropenem alone,K. pneumoniae 6540,0.5 µg/mL
same,MIC,K. pneumoniae 6839; [2],4 µg/mL
same,MIC of Meropenem alone,K. pneumoniae 6839,2 µg/mL
same,MIC,K. pneumoniae 100; [2],4 µg/mL
same,MIC,K. pneumoniae 101; [2],> 64 µg/mL
same,MIC of Meropenem alone,K. pneumoniae 101,64 µg/mL and 32 µg/mL
same,MIC,K. pneumoniae 5971(KOX); [2],64 µg/mL
same,MIC of Meropenem alone,K. pneumoniae 5971(KOX),32 µg/mL
same,MIC,K. pneumoniae KU2; [2],> 64 µg/mL
same,MIC,K. pneumoniae MP14; [2],> 64 µg/mL
same,MIC of Meropenem alone,K. pneumoniae MP14,64 µg/mL
same,MIC,K. pneumoniae 5117; [2],8 µg/mL
same,MIC of Meropenem alone,K. pneumoniae 5117,4 µg/mL
same,MIC,K. pneumoniae CL5761; [2],> 64 µg/mL
same,MIC,"E. coli ECO200; ECO200, read-out: MIC of Meropenem alone",> 64 µg/mL
same,MIC,E. coli K0519020; [2],1 µg/mL
same,MIC,"E. coli TOPDXA048; TOPDXA048, read-out: MIC of Meropenem alone",0.25 µg/mL
same,MIC,E. aerogenes K9911729; [2],0.5 µg/mL
